Biological target: T1, AKR1A1 (Homo sapiens, UniProt P14550)
T1 sequence (P14550 1-325): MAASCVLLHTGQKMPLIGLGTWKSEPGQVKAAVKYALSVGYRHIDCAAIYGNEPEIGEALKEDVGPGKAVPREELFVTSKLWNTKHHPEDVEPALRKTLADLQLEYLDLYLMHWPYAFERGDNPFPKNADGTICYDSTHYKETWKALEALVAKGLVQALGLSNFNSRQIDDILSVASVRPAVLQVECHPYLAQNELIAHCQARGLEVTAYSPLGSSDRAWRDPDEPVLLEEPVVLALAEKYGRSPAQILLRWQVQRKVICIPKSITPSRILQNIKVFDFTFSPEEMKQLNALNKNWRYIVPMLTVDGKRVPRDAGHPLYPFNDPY
Assay: AKR activity measured using S-nitroso-Coenzyme A (SNO-CoA) as a substrate; selectivity for AKR1A1 versus AKR1B1
Assay type: biochemical
Excerpt: In some embodiments, the selectivity of the AKR inhibitor for AKR1A1 inhibition versus other AKRs, such as AKR1B1, can be measured using S-nitroso-Coenzyme A (SNO-CoA) as a substrate. In this instance where SNO-CoA is used as a substrate to measure AKR activity, the AKR inhibitor can have a selectivity for AKR1A1 versus AKR1B1 of ≥1 time, ≥2 times, ≥5 times, ≥10 times, ≥20 times, ≥30 times, ≥40 times, ≥50 times or more. By way of example, JSD-26-1, which is described in the example below, has an AKR1A1/AKR1B1 selectivity of at least 9. In some embodiments, the AKR inhibitor can have negligible inhibition of AKR1B1 activity of SNO-CoA, and particularly compared to AKR1A1 activity.

AKR1A1/AKR1B1 selectivity: at least 9
Structure (SMILES): O=C1NC(=O)C2(N1)c1ccccc1-c1ccc(C3CC3)cc12 (stereo not shown) [JSD-26-1]
